From patent publication US11420961B2, “Heterocyclic compounds” (Hoffmann-La Roche Inc., priority 2017, dated 2022) come the findings set out here.

This assay addresses T1, MAGL (recombinant wild-type) (Homo sapiens, UniProt Q99685).
T1 sequence (Q99685 1-303): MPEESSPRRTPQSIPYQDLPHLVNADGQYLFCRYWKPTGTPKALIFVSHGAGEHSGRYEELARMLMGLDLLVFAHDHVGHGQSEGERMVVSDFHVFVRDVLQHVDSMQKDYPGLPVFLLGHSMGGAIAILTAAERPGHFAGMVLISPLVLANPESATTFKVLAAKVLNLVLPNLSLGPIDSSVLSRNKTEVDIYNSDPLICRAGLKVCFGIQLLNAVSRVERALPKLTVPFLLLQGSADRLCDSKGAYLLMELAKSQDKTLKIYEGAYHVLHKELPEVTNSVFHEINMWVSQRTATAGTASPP
Nature of the assay: 4-NPA assay: MAGL inhibitory activity by hydrolysis of 4-nitrophenylacetate, absorbance at 405 nm. The format is biochemical. As to conditions: 4-NPA assay (values without footnote [a]). Here is the method: Compounds were profiled for MAGL inhibitory activity by measuring the enzymatic activity of MAGL by following the hydrolysis of 4-nitorphenylacetate resulting in 4-nitrophenol, which absorbs at 405-412 nm (G. G. Muccioli, G. Labar, D M. Lambert, Chem. Bio. Chem. 2008, 9, 2704-2710). This assay is hereinafter abbreviated “4-NPA assay”.
The 4-NPA assay was carried out in 384 well assay plates (black with clear bottom, non-binding surface treated, Corning Ref. 3655) in a total volume of 40 μL. Compound dilutions were made in 100% DMSO (VWR Chemicals 23500.297) in a polypropylene plate in 3-fold dilution steps to give a final concentration range in the assay from 25 μM to 1.7 nM. 1 μL compound dilutions (100% DMSO) were added to 19 μL MAGL (recombinant wild-type) in assay buffer (50 mM TRIS (GIBCO, 15567-027), 1 mM EDTA (Fluka, 03690-100 ml)). The plate was shaked for 1 min at 2000 rpm (Variomag Teleshake) and then incubated for 15 min at RT. To start the reaction, 20 μL 4-Nitrophenlyacetate (Sigma N-8130) in assay buffer with 6% EtOH was added. The final concentrations in the assay were 1 nM MAGL and 300 μM 4-Nitrophenylacetate. After shaking (1 min, 2000 rpm) and 5 min incubation at RT, the absorbance at 405 nm was measured for a first time (Molecular Devices, SpectraMax Paradigm). A second measurement was then done after incubation for 80 min at RT. From the two measurements, the slope was calculated by substracting the first from the second measurement.
On to `O=C1COc2ccc(C(=O)N3CCC(c4n[nH]c5ccccc45)CC3)cc2N1` [Example 36, 6-[4-(1H-indazol-3-yl)piperidine-1-carbonyl]-4H-1,4-benzoxazin-3-one], for which the half-maximal inhibitory concentration (IC50) is 158 nM.

Regarding `O=C1CCc2c(cc(C(=O)N3CCC(C(c4ccccc4)c4ccccc4)CC3)cc2OCCF)N1` [Example 109, 7-(4-Benzhydrylpiperidine-1-carbonyl)-5-(2-fluoroethoxy)-3,4-dihydro-1H-quinolin-2-one], the IC50 came out at 6.2 nM.

Turning to `COc1ccc(C(c2ccccn2)C2CCN(C(=O)c3ccc4c(c3)NC(=O)CO4)CC2)cc1OC` (single isomer, unassigned) [Example 117, 6-[4-[(S or R)-(3,4-Dimethoxyphenyl)-(2-pyridyl)methyl]piperidine-1-carbonyl]-4H-1,4-benzoxazin-3-one], the IC50 is 7.3 nM.

As for `COc1ccc(C(c2ccc(F)cc2)C2CCN(C(=O)c3ccc4c(c3)NC(=O)CO4)CC2)cc1OC` (single isomer, unassigned) [Example 105, 6-[4-[(R or S)-(3,4-Dimethoxyphenyl)-(4-fluorophenyl)methyl]piperidine-1-carbonyl]-4H-1,4-benzoxazin-3-one], the IC50 is 0.8 nM.

For the compound `Cc1cccc(C(c2ccccc2)C2CCN(C(=O)c3ccc4c(c3)NC(=O)CO4)CC2)c1` (stereo not shown) [Example 59, 6-[4-[m-tolyl(phenyl)methyl]piperidine-1-carbonyl]-4H-1,4-benzoxazin-3-one], the 50% inhibitory concentration (IC50) was 0.5 nM.

Regarding `Cc1cccc([C@@H](c2ccccc2)C2CCN(C(=O)c3ccc4c(c3)NC(=O)CO4)CC2)c1` (single isomer, unassigned) [Example 17], the IC50 was 0.2 nM.

Take `COc1cc(C(=O)N2CCC(C(c3ccc(F)cc3)c3ccc(F)cc3)CC2)cc2c1CCC(=O)N2` [Example 100, 7-[4-[Bis(4-fluorophenyl)methyl]piperidine-1-carbonyl]-5-methoxy-3,4-dihydro-1H-quinolin-2-one]: the IC50 is 6.4 nM.

For `O=C1COc2ccc(C(=O)N3CCC(c4csc5ccccc45)CC3)cc2N1` [Example 42, 6-[4-(1-benzothiophen-3-yl)piperidine-1-carbonyl]-4H-1,4-benzoxazin-3-one], the IC50 turned out to be 97 nM.

For `COc1ccc(C(c2ccccc2)C2CCN(C(=O)c3ccc4c(c3)NC(=O)CO4)CC2)cc1` (stereo not shown) [Example 58, 6-[4-[(4-methoxyphenyl)-phenyl-methyl]piperidine-1-carbonyl]-4H-1,4-benzoxazin-3-one], the IC50 was found to be 0.8 nM.

Take `O=C1COc2ccc(C(=O)N3CCC(c4cc(-c5ccc(Cl)cc5)[nH]n4)CC3)cc2N1` [Example 44, 6-[4-[5-(4-chlorophenyl)-1H-pyrazol-3-yl]piperidine-1-carbonyl]-4H-1,4-benzoxazin-3-one]: the half-inhibitory concentration (IC50) was 390 nM.

For the compound `O=C1COc2ccc(C(=O)N3CCC([C@@H](c4ccccc4)c4cccc(OCCOCCF)c4)CC3)cc2N1` [Example 67, 6-[4-[(S)-[3-[2-(2-fluoroethoxy)ethoxy]phenyl]-phenyl-methyl]piperidine-1-carbonyl]-4H-1,4-benzoxazin-3-one], the IC50 worked out at 0.65 nM.

`COc1ccc([C@@H](c2ccccc2)C2CCN(C(=O)c3ccc4c(c3)NC(=O)CO4)CC2)cc1OC` (single isomer, unassigned) [Example 9]: the IC50 turned out to be 0.3 nM.

In the case of `COc1ccc([C@H](c2ccccc2)C2CCN(C(=O)c3ccc4c(c3)NC(=O)CO4)CC2)cc1` (single isomer, unassigned) [Example 10], the IC50 was 1.9 nM.

For the compound `O=C1COc2ccc(C(=O)N3CCC(C(c4ccc(F)cc4)c4ccc(F)nc4)CC3)cc2N1` (single isomer, unassigned) [Example 115, 6-[4-[(R or S)-(4-Fluorophenyl)-(6-fluoro-3-pyridyl)methyl]piperidine-1-carbonyl]-4H-1,4-benzoxazin-3-one], the IC50 worked out at 1.4 nM.

On to `O=C1COc2ccc(C(=O)N3CCC(C(c4ccc(F)cc4)c4ccnc(F)c4)CC3)cc2N1` (single isomer, unassigned) [Example 111, 6-[4-[(R or S)-(4-Fluorophenyl)-(2-fluoro-4-pyridyl)methyl]piperidine-1-carbonyl]-4H-1,4-benzoxazin-3-one], for which the IC50 worked out at 1.5 nM.

As for `COc1cc(OC)cc(N2CCN(C(=O)c3ccc4c(c3)NC(=O)CO4)CC2)c1` [Example 89, 6-[4-(3,5-dimethoxyphenyl)piperazine-1-carbonyl]-4H-1,4-benzoxazin-3-one], the IC50 turned out to be 1900 nM.

With `Cc1ccc([C@@H](c2ccccc2)C2CCN(C(=O)c3ccc4c(c3)NC(=O)CO4)CC2)cc1` (single isomer, unassigned) [Example 15], the IC50 was determined as 1.1 nM.

Consider `O=C1COc2ccc(C(=O)N3CCC([C@H](c4ccc(F)cc4)c4cccc(OCCF)c4)CC3)cc2N1` [Example 76, 6-[4-[(R)-[3-(2-fluoroethoxy)phenyl]-(4-fluorophenyl)methyl]piperidine-1-carbonyl]-4H-1,4-benzoxazin-3-one], for which the IC50 came to 0.53 nM.

As for `COc1ccc2[nH]c(C)c(C3CCN(C(=O)c4ccc5c(c4)NC(=O)CO5)CC3)c2c1` [Example 41, 6-[4-(5-methoxy-2-methyl-1H-indol-3-yl)piperidine-1-carbonyl]-4H-1,4-benzoxazin-3-one], the IC50 is 440 nM.

As to `O=C1COc2ccc(C(=O)N3CCC([C@H](c4ccccc4)c4cccc(F)c4)CC3)cc2N1` [Example 75, 6-[4-[(R)-(3-fluorophenyl)-phenyl-methyl]piperidine-1-carbonyl]-4H-1,4-benzoxazin-3-one], the IC50 stood at 0.43 nM.

Take `O=C1COc2ccc(C(=O)N3CCC(C(c4ccc(F)cc4)c4ccc(OCCOCCF)cc4)CC3)cc2N1` (single isomer, unassigned) [Example 107, 6-[4-[(R or S)-[4-[2-(2-Fluoroethoxy)ethoxy]phenyl]-(4-fluorophenyl)methyl]piperidine-1-carbonyl]-4H-1,4-benzoxazin-3-one]: the IC50 came to 0.2 nM.

With `O=C1COc2ccc(C(=O)N3CCC([C@@H](c4ccccc4)c4cccc(OCCF)c4)CC3)cc2N1` [Example 81, 6-[4-[(S)-[3-(2-fluoroethoxy)phenyl]-phenyl-methyl]piperidine-1-carbonyl]-4H-1,4-benzoxazin-3-one], the IC50 was 1.1 nM.

On to `O=C1COc2ccc(C(=O)N3CCC(c4cccc(Cl)c4)C3)cc2N1` (stereo not shown) [Example 56, 6-[3-(3-chlorophenyl)pyrrolidine-1-carbonyl]-4H-1,4-benzoxazin-3-one], for which the IC50 stood at 1400 nM.

In the case of `CC(C)n1nc(C2CCN(C(=O)c3ccc4c(c3)NC(=O)CO4)CC2)c2ccc(F)cc21` [Example 38, 6-[4-(6-fluoro-1-propan-2-ylindazol-3-yl)piperidine-1-carbonyl]-4H-1,4-benzoxazin-3-one], the IC50 is 86 nM.

`O=C1COc2ccc(C(=O)N3CCC(=C(c4ccc(F)cc4)c4ccc(OCCF)cc4)CC3)cc2N1` [Example 93, 6-[4-[[4-(2-Fluoroethoxy)phenyl]-(4-fluorophenyl)methylene]piperidine-1-carbonyl]-4H-1,4-benzoxazin-3-one]: the IC50 was found to be 3.5 nM.

On to `O=C1COc2ccc(C(=O)N3CCC(c4cc5ccc(Cl)cc5[nH]4)CC3)cc2N1` [Example 46, 6-[4-(6-chloro-1H-indol-2-yl)piperidine-1-carbonyl]-4H-1,4-benzoxazin-3-one], for which the IC50 came to 1110 nM.

`O=C1COc2ccc(C(=O)N3CCC(C(c4ccccc4)c4cccc(OCCF)c4)CC3)cc2N1` (stereo not shown) [Example 72, 6-[4-[[3-(2-fluoroethoxy)phenyl]-phenyl-methyl]piperidine-1-carbonyl]-4H-1,4-benzoxazin-3-one]: the IC50 came to 0.55 nM.

As to `O=C1COc2ccc(C(=O)N3CCC(c4nnc(-c5ccccc5)o4)CC3)cc2N1` [Example 48, 6-[4-(5-phenyl-1,3,4-oxadiazol-2-yl)piperidine-1-carbonyl]-4H-1,4-benzoxazin-3-one], the IC50 was 549 nM.

`O=C1COc2ccc(C(=O)N3CCC([C@@H](c4ccccc4)c4cccc(F)c4)CC3)cc2N1` [Example 74, 6-[4-[(S)-(3-fluorophenyl)-phenyl-methyl]piperidine-1-carbonyl]-4H-1,4-benzoxazin-3-one]: the IC50 came out at 0.56 nM.

As for `COc1cccc(C(c2ccc(F)cc2)C2CCN(C(=O)c3ccc4c(c3)NC(=O)CO4)CC2)c1` (single isomer, unassigned) [Example 120, 6-[4-[(R or S)-(4-Fluorophenyl)-(3-methoxyphenyl)methyl]piperidine-1-carbonyl]-4H-1,4-benzoxazin-3-one], the IC50 was 0.6 nM.

Take `O=C1COc2ccc(C(=O)N3CCC(C4(c5ccc(Br)cc5)OCCO4)CC3)cc2N1` [Example 54, 6-[4-[2-(4-bromophenyl)-1,3-dioxolan-2-yl]piperidine-1-carbonyl]-4H-1,4-benzoxazin-3-one]: the IC50 is 7.3 nM.
